{"source": "paper PMC8800111", "about": "(The Journal of Biological Chemistry, 2021)", "format_in_all_cases": "cell-based", "key": {"[1]": {"target": "proteins of U3A human fibrosarcoma cells (4462 proteins detected) (Homo sapiens, UniProt P16298)", "conditions": "protein PPP3CB; U3A cells"}, "[2]": {"target": "proteins of U3A human fibrosarcoma cells (4462 proteins detected) (Homo sapiens, UniProt P49915)", "conditions": "protein GMPS; soluble abundance after heat, U3A cells"}, "[3]": {"target": "proteins of U3A human fibrosarcoma cells (4462 proteins detected) (Homo sapiens, UniProt Q16637)", "sequence (Q16637 whole entry)": "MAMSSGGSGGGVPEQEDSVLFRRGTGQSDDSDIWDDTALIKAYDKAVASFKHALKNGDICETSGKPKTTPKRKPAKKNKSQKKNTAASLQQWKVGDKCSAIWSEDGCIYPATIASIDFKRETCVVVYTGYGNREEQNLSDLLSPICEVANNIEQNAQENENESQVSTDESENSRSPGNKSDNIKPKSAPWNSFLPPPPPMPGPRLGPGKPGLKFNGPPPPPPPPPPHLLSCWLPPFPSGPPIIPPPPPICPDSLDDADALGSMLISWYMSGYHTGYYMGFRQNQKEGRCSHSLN", "conditions": "protein SMN1; SMN2; U3A, 10 μM, 2 h"}, "[4]": {"target": "proteins of U3A human fibrosarcoma cells (4462 proteins detected) (Homo sapiens, UniProt O15294)", "conditions": "protein OGT; U3A cells"}, "[5]": {"target": "proteins of U3A human fibrosarcoma cells (4462 proteins detected) (Homo sapiens, UniProt O75792)", "conditions": "protein RNASEH2A; U3A cells"}, "[6]": {"target": "proteins of U3A human fibrosarcoma cells (4462 proteins detected) (Homo sapiens, UniProt Q12874)", "conditions": "protein SF3A3; U3A cells"}, "[7]": {"target": "proteins of U3A human fibrosarcoma cells (4462 proteins detected) (Homo sapiens, UniProt A0FGR8)", "conditions": "protein ESYT2; U3A, 10 μM, 2 h"}, "[8]": {"target": "proteins of U3A human fibrosarcoma cells (4462 proteins detected) (Homo sapiens, UniProt Q8IVL0)", "conditions": "protein NAV3, U3A cells"}, "[9]": {"target": "proteins of U3A human fibrosarcoma cells (4462 proteins detected) (Homo sapiens, UniProt O43402)", "sequence (O43402 whole entry)": "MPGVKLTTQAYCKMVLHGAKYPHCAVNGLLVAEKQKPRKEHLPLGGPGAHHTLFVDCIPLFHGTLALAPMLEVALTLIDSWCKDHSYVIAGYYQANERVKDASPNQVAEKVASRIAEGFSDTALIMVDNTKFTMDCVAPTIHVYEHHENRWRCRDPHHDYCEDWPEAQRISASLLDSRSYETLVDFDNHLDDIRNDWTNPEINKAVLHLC", "conditions": "protein EMC8; soluble abundance after heat, U3A cells"}, "[10]": {"target": "proteins of U3A human fibrosarcoma cells (4462 proteins detected) (Homo sapiens, UniProt Q5T5Y3)", "conditions": "protein CAMSAP1; soluble abundance after heat, U3A cells"}, "[11]": {"target": "proteins of U3A human fibrosarcoma cells (4462 proteins detected) (Homo sapiens, UniProt P23469)", "conditions": "protein PTPRE; soluble abundance after heat, U3A cells"}, "[12]": {"target": "proteins of U3A human fibrosarcoma cells (4462 proteins detected) (Homo sapiens, UniProt O00299)", "conditions": "protein CLIC1, U3A cells"}, "[13]": {"target": "proteins of U3A human fibrosarcoma cells (4462 proteins detected) (Homo sapiens, UniProt Q9BY32)", "conditions": "protein ITPA; soluble abundance after heat, U3A cells"}, "[14]": {"target": "proteins of U3A human fibrosarcoma cells (4462 proteins detected) (Homo sapiens, UniProt Q9Y316)", "conditions": "protein MEMO1, U3A cells"}, "[15]": {"target": "proteins of U3A human fibrosarcoma cells (4462 proteins detected) (Homo sapiens, UniProt Q75QN2)", "conditions": "protein INTS8; U3A cells"}, "[16]": {"target": "proteins of U3A human fibrosarcoma cells (4462 proteins detected) (Homo sapiens, UniProt O75170)", "sequence (O75170 whole entry)": "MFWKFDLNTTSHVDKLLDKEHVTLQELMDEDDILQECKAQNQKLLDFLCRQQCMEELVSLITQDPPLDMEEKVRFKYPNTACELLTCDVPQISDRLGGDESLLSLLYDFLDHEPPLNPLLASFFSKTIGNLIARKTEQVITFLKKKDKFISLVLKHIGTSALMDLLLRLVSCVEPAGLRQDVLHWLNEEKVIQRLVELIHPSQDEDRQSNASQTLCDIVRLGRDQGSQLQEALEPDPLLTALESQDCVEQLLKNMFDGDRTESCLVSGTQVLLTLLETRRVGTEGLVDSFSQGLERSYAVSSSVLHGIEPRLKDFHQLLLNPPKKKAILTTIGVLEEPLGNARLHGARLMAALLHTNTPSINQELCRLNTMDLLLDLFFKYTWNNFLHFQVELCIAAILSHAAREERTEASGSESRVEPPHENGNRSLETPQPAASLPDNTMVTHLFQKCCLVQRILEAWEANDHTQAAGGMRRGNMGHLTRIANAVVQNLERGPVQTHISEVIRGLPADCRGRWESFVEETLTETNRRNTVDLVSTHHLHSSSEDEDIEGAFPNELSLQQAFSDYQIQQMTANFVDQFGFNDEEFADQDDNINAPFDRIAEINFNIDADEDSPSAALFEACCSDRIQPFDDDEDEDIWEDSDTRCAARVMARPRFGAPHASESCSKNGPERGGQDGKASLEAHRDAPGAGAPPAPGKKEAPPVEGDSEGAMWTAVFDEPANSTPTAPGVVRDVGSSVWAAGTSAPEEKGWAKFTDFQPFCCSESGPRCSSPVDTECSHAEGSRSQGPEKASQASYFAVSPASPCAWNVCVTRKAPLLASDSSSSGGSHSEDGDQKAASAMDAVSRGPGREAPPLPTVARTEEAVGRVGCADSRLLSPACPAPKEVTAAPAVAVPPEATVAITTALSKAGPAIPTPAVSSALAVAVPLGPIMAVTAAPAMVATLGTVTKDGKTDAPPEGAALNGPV", "conditions": "protein PPP6R2; soluble abundance after heat, U3A cells"}, "[17]": {"target": "proteins of U3A human fibrosarcoma cells (4462 proteins detected) (Homo sapiens, UniProt Q13620)", "conditions": "protein CUL4B; U3A cells"}, "[18]": {"target": "proteins of U3A human fibrosarcoma cells (4462 proteins detected) (Homo sapiens, UniProt Q15814)", "sequence (Q15814 whole entry)": "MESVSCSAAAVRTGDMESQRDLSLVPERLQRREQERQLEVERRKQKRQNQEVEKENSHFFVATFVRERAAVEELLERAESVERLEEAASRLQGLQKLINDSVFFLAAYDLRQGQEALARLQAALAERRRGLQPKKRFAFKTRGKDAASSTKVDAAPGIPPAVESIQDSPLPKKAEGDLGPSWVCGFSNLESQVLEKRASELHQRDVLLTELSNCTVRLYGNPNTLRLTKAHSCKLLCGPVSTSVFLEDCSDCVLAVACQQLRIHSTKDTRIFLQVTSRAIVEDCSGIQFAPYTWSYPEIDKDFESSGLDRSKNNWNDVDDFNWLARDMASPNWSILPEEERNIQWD", "conditions": "protein TBCC; U3A cells"}, "[19]": {"target": "proteins of U3A human fibrosarcoma cells (4462 proteins detected) (Homo sapiens, UniProt Q9Y3T9)", "conditions": "protein NOC2L; soluble abundance after heat, U3A cells"}, "[20]": {"target": "proteins of U3A human fibrosarcoma cells (4462 proteins detected) (Homo sapiens, UniProt Q9HCJ0)", "sequence (Q9HCJ0 whole entry)": "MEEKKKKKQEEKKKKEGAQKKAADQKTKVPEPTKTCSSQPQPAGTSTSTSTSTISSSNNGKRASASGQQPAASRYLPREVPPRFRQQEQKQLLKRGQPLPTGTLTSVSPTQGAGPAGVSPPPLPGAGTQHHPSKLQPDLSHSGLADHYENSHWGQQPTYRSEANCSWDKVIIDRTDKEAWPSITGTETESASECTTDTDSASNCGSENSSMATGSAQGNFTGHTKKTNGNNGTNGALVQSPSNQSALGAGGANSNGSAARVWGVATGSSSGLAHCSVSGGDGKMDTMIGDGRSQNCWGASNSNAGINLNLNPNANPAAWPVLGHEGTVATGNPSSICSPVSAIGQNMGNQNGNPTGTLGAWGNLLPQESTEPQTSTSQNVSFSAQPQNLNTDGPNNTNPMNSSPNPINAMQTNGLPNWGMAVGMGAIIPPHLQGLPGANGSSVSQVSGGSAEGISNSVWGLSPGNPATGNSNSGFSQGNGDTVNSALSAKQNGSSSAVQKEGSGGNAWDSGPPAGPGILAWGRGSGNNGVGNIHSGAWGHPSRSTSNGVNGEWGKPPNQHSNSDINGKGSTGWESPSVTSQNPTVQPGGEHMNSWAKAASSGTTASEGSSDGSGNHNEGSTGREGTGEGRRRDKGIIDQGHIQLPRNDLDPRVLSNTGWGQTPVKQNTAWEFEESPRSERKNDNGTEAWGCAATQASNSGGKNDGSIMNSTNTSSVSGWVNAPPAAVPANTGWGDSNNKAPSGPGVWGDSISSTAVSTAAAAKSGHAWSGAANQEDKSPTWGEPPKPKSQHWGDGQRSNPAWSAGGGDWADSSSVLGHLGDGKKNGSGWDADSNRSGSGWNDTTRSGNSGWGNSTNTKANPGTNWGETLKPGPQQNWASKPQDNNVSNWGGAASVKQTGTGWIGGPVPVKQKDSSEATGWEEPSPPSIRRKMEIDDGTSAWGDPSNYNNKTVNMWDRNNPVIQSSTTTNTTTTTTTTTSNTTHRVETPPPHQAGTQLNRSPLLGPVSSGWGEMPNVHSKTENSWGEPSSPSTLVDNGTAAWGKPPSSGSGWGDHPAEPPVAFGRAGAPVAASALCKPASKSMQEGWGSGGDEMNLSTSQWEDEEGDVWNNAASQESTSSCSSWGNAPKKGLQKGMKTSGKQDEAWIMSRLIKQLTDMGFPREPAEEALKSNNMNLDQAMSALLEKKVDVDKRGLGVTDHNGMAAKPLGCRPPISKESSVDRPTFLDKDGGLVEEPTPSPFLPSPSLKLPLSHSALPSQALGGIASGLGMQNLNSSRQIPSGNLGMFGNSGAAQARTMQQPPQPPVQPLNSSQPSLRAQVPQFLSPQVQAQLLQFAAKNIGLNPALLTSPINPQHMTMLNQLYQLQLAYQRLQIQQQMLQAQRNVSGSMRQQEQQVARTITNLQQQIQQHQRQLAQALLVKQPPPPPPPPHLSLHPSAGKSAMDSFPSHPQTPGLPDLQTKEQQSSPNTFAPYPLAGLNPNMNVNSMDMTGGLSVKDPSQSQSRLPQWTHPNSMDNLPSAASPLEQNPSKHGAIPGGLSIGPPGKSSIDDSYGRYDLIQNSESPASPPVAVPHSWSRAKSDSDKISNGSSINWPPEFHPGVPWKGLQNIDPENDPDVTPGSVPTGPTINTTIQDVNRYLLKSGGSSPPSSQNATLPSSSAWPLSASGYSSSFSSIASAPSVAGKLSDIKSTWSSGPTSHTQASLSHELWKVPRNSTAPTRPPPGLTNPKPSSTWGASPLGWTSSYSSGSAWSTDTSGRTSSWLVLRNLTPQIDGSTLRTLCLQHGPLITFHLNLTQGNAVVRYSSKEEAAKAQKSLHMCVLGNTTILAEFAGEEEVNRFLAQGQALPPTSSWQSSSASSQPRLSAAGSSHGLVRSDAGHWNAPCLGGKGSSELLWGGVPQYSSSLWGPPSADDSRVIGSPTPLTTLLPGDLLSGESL", "conditions": "protein TNRC6C, U3A cells"}, "[21]": {"target": "proteins of U3A human fibrosarcoma cells (4462 proteins detected) (Homo sapiens, UniProt O95801)", "conditions": "protein TTC4; soluble abundance after heat, U3A cells"}, "[22]": {"target": "proteins of U3A human fibrosarcoma cells (4462 proteins detected) (Homo sapiens, UniProt P31689)", "sequence (P31689 whole entry)": "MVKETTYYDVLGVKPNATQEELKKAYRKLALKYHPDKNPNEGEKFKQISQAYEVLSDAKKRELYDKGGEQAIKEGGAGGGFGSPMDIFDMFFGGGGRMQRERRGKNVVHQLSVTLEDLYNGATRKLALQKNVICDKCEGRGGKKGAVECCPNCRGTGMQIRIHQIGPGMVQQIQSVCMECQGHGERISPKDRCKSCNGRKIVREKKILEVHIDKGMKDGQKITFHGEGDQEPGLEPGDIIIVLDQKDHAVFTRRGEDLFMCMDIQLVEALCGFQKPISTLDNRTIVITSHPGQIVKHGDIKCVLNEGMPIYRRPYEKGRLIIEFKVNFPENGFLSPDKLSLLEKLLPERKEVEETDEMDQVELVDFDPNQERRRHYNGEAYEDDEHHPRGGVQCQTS", "conditions": "protein DNAJA1; U3A cells"}, "[23]": {"target": "proteins of U3A human fibrosarcoma cells (4462 proteins detected) (Homo sapiens, UniProt Q9NVR2)", "conditions": "protein INTS10; U3A cells"}, "[24]": {"target": "proteins of U3A human fibrosarcoma cells (4462 proteins detected) (Homo sapiens, UniProt P46060)", "conditions": "protein RANGAP1; U3A cells"}, "[25]": {"target": "proteins of U3A human fibrosarcoma cells (4462 proteins detected) (Homo sapiens, UniProt P25787)", "sequence (P25787 whole entry)": "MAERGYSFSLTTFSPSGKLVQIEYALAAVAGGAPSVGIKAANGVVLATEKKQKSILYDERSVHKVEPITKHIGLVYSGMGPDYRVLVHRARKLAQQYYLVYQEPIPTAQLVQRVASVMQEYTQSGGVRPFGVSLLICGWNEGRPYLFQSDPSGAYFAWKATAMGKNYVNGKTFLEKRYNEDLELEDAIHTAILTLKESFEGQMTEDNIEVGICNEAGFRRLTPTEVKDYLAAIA", "conditions": "protein PSMA2, U3A cells"}, "[26]": {"target": "proteins of U3A human fibrosarcoma cells (4462 proteins detected) (Homo sapiens, UniProt Q9UJX6)", "conditions": "protein ANAPC2; soluble abundance after heat, U3A cells"}, "[27]": {"target": "proteins of U3A human fibrosarcoma cells (4462 proteins detected) (Homo sapiens, UniProt P68366)", "conditions": "protein TUBA4A; U3A cells"}, "[28]": {"target": "proteins of U3A human fibrosarcoma cells (4462 proteins detected) (Homo sapiens, UniProt Q96EY8)", "conditions": "protein MMAB; U3A cells"}, "[29]": {"target": "proteins of U3A human fibrosarcoma cells (4462 proteins detected) (Homo sapiens, UniProt Q15397)", "sequence (Q15397 whole entry)": "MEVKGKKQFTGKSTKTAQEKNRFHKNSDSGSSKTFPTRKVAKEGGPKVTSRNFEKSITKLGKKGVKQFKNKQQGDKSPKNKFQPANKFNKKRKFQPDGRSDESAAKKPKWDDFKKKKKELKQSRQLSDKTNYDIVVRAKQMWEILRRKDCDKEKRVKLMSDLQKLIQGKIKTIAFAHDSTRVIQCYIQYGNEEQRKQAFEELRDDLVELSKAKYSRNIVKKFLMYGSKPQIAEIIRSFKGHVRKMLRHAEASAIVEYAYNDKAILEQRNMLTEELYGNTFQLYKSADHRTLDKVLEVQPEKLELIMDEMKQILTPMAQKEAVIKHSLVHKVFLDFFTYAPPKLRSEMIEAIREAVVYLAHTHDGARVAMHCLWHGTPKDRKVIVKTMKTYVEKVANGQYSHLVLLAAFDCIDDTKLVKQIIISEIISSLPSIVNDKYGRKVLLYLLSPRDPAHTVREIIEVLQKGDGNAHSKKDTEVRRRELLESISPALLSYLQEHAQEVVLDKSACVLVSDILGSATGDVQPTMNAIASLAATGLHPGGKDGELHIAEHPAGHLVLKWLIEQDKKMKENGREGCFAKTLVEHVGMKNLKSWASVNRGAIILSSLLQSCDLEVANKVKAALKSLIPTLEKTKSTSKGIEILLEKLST", "conditions": "protein KIAA0020; U3A cells"}}}
{"smiles": "CCc1nc(N)nc(N)c1-c1ccc(Cl)cc1", "note": "[pyrimethamine]", "values": [{"measurement": "Log2 (PYR/DMSO)", "setting": "[1]", "result": 0.19}, {"measurement": "Log2 (PYR/DMSO)", "setting": "[2]", "result": 0.14}, {"measurement": "Log2 (PYR/DMSO), SMN1; SMN2", "setting": "[3]", "result": -0.18}, {"measurement": "Log2 (PYR/DMSO)", "setting": "[4]", "result": 0.16}, {"measurement": "Log2 (PYR/DMSO)", "setting": "[5]", "result": 0.16}, {"measurement": "Log2 (PYR/DMSO)", "setting": "[6]", "result": 0.18}, {"measurement": "Log2 (PYR/DMSO), ESYT2", "setting": "[7]", "result": 0.33}, {"measurement": "Log2 (PYR/DMSO)", "setting": "[8]", "result": -0.04}, {"measurement": "Log2 (PYR/DMSO)", "setting": "[9]", "result": 0.15}, {"measurement": "Log2 (PYR/DMSO)", "setting": "[10]", "result": 0.13}, {"measurement": "Log2 (PYR/DMSO)", "setting": "[11]", "result": 0.13}, {"measurement": "Log2 (PYR/DMSO)", "setting": "[12]", "result": -0.03}, {"measurement": "Log2 (PYR/DMSO)", "setting": "[13]", "result": 0.15}, {"measurement": "Log2 (PYR/DMSO)", "setting": "[14]", "result": -0.03}, {"measurement": "Log2 (PYR/DMSO)", "setting": "[15]", "result": 0.18}, {"measurement": "Log2 (PYR/DMSO)", "setting": "[16]", "result": 0.13}, {"measurement": "Log2 (PYR/DMSO)", "setting": "[17]", "result": 0.18}, {"measurement": "Log2 (PYR/DMSO)", "setting": "[18]", "result": 0.20}, {"measurement": "Log2 (PYR/DMSO)", "setting": "[19]", "result": 0.14}, {"measurement": "Log2 (PYR/DMSO)", "setting": "[20]", "result": -0.04}, {"measurement": "Log2 (PYR/DMSO)", "setting": "[21]", "result": 0.13}, {"measurement": "Log2 (PYR/DMSO)", "setting": "[22]", "result": 0.17}, {"measurement": "Log2 (PYR/DMSO)", "setting": "[23]", "result": 0.18}, {"measurement": "Log2 (PYR/DMSO)", "setting": "[24]", "result": 0.18}, {"measurement": "Log2 (PYR/DMSO)", "setting": "[25]", "result": -0.03}, {"measurement": "Log2 (PYR/DMSO)", "setting": "[26]", "result": 0.14}, {"measurement": "Log2 (PYR/DMSO)", "setting": "[27]", "result": 0.17}, {"measurement": "Log2 (PYR/DMSO)", "setting": "[28]", "result": 0.19}, {"measurement": "Log2 (PYR/DMSO)", "setting": "[29]", "result": 0.18}]}
